Experimental findings from US20230087118A1, “IMIDAZO[1,2-a][sequence] DERIVATIVES AND THEIR USE IN THE TREATMENT OF DISEASE” (priority 2019, published 2023) are described below.

One test concerns the target T1, IRAK4 (Homo sapiens, UniProt Q9NWZ3).
T1 sequence (Q9NWZ3 1-460): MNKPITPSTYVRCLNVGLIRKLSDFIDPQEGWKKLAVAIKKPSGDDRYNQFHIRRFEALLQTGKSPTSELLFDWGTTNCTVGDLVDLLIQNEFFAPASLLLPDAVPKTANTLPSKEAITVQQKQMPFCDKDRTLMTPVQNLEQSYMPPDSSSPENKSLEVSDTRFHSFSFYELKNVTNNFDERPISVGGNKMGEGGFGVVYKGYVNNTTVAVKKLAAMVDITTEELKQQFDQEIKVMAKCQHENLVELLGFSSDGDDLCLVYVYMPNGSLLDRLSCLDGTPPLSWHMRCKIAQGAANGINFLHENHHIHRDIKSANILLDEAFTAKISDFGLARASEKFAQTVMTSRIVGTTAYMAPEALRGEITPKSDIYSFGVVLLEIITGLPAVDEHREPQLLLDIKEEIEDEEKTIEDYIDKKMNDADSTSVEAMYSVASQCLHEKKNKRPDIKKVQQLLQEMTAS
Put plainly: biochemical.
Settings: not given
The IC50 is the concentration that gives 50% inhibition. Regarding `CC12CC(c3cn4cc(C(=O)Nc5cnc6cccnn56)c(OC5CCCC5)nc4n3)(CO1)C2` [Example 650, 7-(cyclopentyloxy)-N-(imidazo[1,2-b]pyridazin-3-yl)-2-(1-methyl-2-oxabicyclo[2.1.1]hexan-4-yl)imidazo[1,2-a]pyrimidine-6-carboxamide], half-maximal inhibition (IC50) required 0.0001 µM.

Staying with this test, now noted: IRAK4 Biochemical Assay (1 mM ATP, 2 h) IC50 (μM), 1 mM ATP, 2 h, 100 pM IRAK4.
For `CC12CC(c3cn4cc(C(=O)Nc5cccn(C6CC6)c5=O)c(OC5CCC5)nc4n3)(CO1)C2` [Example 651, 7-Cyclobutoxy-N-(1-cyclopropyl-2-oxo-1,2-dihydropyridin-3-yl)-2-(1-methyl-2-oxabicyclo[2.1.1]hexan-4-yl)imidazo[1,2-a]pyrimidine-6-carboxamide], the IC50 was 0.0005 µM.
Same read-out and setting: the result for `CC(C)Oc1nc2nc(C34CCC(C)(CC3)OC4)cn2cc1C(=O)Nc1cccn(C)c1=O` [Example 654, 7-isopropoxy-N-(1-methyl-2-oxo-1,2-dihydropyridin-3-yl)-2-(1-methyl-2-oxabicyclo[2.2.2]octan-4-yl)imidazo[1,2-a]pyrimidine-6-carboxamide] reads 0.0005 µM.

For another test, the target named is T1, IRAK4. Put plainly: 2-hour 10 μM ATP Biochemical Assay (MesoScale Detection format; IRAK4 phosphorylation of biotin labeled IRAK1 activation loop peptide). As to conditions: 0.1 nM IRAK4. As for the experimental part: Compounds of the invention were assessed for their ability to inhibit IRAK4 activity. The inhibitory properties of the compounds of the invention described herein can be evidenced by testing in any one of the following assays.
The 2-hour 10 μM ATP Biochemical Assay employs a MesoScale Detection (MSD) format. The kinase reaction is based on the IRAK4 phosphorylation of a biotin labeled peptide (IRAK1 activation loop sequence 360-389).
The kinase reaction in 30 μl is carried out in wells of a 384 well polypropylene assay plate, with 0.1 nM IRAK4, 1.6 μM of biotinylated peptide substrate and 10 μM ATP in 50 mM Hepes, pH 7.5, 60 mM NaCl, 5 mM MgCl2, 0.25 mM MnCl2, 2 mM DTT, 0.01% BSA, and 1% DMSO (from compound DMSO stocks), for 2 hour at room temperature. The activity is quenched with 11 μl of 70 mM EDTA, pH 8.
To detect the phosphorylated biotinylated peptide substrate, 30 μl of the quenched reaction mixture is added to equivalent wells of a 384 well streptavidin coated MesoScale plate (Meso Scale Discovery #L21SA-1). After a 1 hour incubation of the plate for 1 hour at room temperature with gentle mixing, the plate wells are washed 3 times with 50 mM Tris, pH 7.5, 150 mM NaCl, 0.02% Tween-20.
A 25 μl volume of 1:500 anti-P-Threonine Rabbit polyclonal Antibody plus 1:500 Goat-anti-Rabbit Sulfo Tag Antibody (Meso Scale Discovery R32AB-1) in 50 mM Tris, pH 7.5, 150 mM NaCl, 0.02% Tween-20 plus 2% BSA is then added to each well. After a 1-hour incubation of the plate for 1 hour at room temperature with gentle mixing, the plate wells are washed, 3 times with 50 mM Tris, pH 7.5, 150 mM NaCl, 0.02% Tween-20. A 40 μl volume of 2× MSD Read Buffer (Meso Scale Discovery R92TC-1) is added to each well, and the plate is read immediately in an MSD Plate Reader (Meso Scale Discovery).
`COc1cc2nc(C3CCOCC3)cn2cc1C(=O)N[C@@H]1COC[C@H]1F` (racemic) [Example 123] registered an IC50 of 0.741 µM.
Still for that read-out and setting: in the case of `COc1cc2nc(C3CCOCC3)cn2cc1C(=O)N[C@@]12CCC[C@@H]1C2` (racemic) [Example 149] it was 0.794 µM.
Still for that read-out and setting: in the case of `COc1cc2nc(C3CCOCC3)cn2cc1C(=O)N[C@@H]1C[C@H]1C1CCC1` (racemic) [Example 154] it was 0.412 µM.
Compound `COc1cc2nc(C3CCOCC3)cn2cc1C(=O)N[C@@H]1CCCC[C@H]1OC` (racemic) [Example 155] had an IC50 of 0.23 µM.
Same read-out and setting: in the case of `COc1cc2nc(C3CCOCC3)cn2cc1C(=O)N[C@@H]1CCC[C@H](C2CC2)C1` (relative stereo) [Example 177] it was 0.861 µM.
Compound `COc1cccc(NC(=O)c2cn3cc(CC(C)C#N)nc3cc2OC)n1` (stereo not shown) [Example 12] yielded an IC50 of 0.032 µM.
The same measure, in the same setting: the result for `COc1cccc(NC(=O)c2cn3cc(C(C)(C)CC#N)nc3cc2OC)n1` [Example 13] reads 0.017 µM; that for `COc1cccc(NC(=O)c2cn3cc(C4(OC)CC4)nc3cc2OC)n1` [Example 14], 0.026 µM.
Same read-out and setting: the result for `COc1cccc(NC(=O)c2cn3cc(CC4COCCO4)nc3cc2OC)n1` (stereo not shown) [Example 15] reads 0.031 µM.
Same read-out and setting: in the case of `COc1cccc(NC(=O)c2cn3cc(C4CC45CCOC5)nc3cc2OC)n1` (stereo not shown) [Example 16] it was 0.008 µM; in that of `COc1cccc(NC(=O)c2cn3cc(C4CCC(OC)C4)nc3cc2OC)n1` (stereo not shown) [Example 17], 0.002 µM; in that of `COc1cccc(NC(=O)c2cn3cc(C4CC5CCC(C4)O5)nc3cc2OC)n1` (stereo not shown) [Example 18], 0.001 µM.
Turning to `COc1cccc(NC(=O)c2cn3cc(C45CC(C#N)(C4)C5)nc3cc2OC)n1` [Example 19], the IC50 amounted to 0.006 µM.
`COc1cccc(NC(=O)c2cn3cc(C45CC(C(F)F)(C4)C5)nc3cc2OC)n1` [Example 20]: the IC50 stood at 0.003 µM.
The same measure, in the same setting: in the case of `COc1cccc(NC(=O)c2cn3cc(C4CCOC4)nc3cc2OC)n1` (stereo not shown) [Example 23] it was 0.025 µM.
Same read-out and setting: in the case of `COc1cc2nc(C3(OC)CC3)cn2cc1C(=O)Nc1cccc(C(F)(F)F)n1` [Example 34] it was 0.057 µM.
As for `COc1cc2nc(C3CCOC3)cn2cc1C(=O)Nc1cccc(C(F)(F)F)n1` (stereo not shown) [Example 35], the concentration for half-maximal inhibition (IC50) turned out to be 0.012 µM.
For `COc1cc2nc(C3CC34CCOC4)cn2cc1C(=O)Nc1cccc(C(F)(F)F)n1` (stereo not shown) [Example 39], half-maximal inhibition (IC50) required 0.024 µM.
Same read-out and setting: in the case of `COc1cc2nc(CC(C)C#N)cn2cc1C(=O)Nc1cccc(C(F)(F)F)n1` (stereo not shown) [Example 42] it was 0.031 µM.
`COc1cc2nc(C(C)(C)CC#N)cn2cc1C(=O)Nc1cccc(C(F)(F)F)n1` [Example 46] registered an IC50 of 0.037 µM.
`COc1cccc(NC(=O)c2ccc3nc(C4CCOCC4)cn3c2)n1` [Example 47]: the IC50 is 0.092 µM.
Still for that read-out and setting: the result for `O=C(Nc1ccn(C(F)F)n1)c1ccc2nc(C3CCOCC3)cn2c1` [Example 49] reads 0.35 µM.
On the same count and under the same terms, in the case of `COc1cc(C(=O)Nc2cccc(C(F)(F)F)n2)cn2cc(CC3CCOC3)nc12` (stereo not shown) [Example 72] it was 0.008 µM; in that of `CCOc1cc2nc(C3CCOCC3)cn2cc1C(=O)Nc1cccc(C(F)F)n1` [Example 73], 0.001 µM.
The compound `COc1cc(C(=O)Nc2cccc(C(F)(F)F)n2)cn2cc(C3CCOCC3)nc12` [Example 75] gave an IC50 of 0.006 µM.
On the same count and under the same terms, in the case of `CCOc1cc2nc(CCCOC)cn2cc1C(=O)Nc1cccc(C(F)F)n1` [Example 85] it was 0.001 µM.
Still for that read-out and setting: the result for `COc1cc(C(=O)Nc2cccc(C(F)F)n2)cn2cc(C3(OC)CC3)nc12` [Example 91, N-(6-(difluoromethyl)pyridin-2-yl)-8-methoxy-2-(1-methoxycyclopropyl)imidazo[1,2-a]pyridine-6-carboxamide] reads 0.079 µM; that for `COc1cc2nc(C3CCOCC3)cn2cc1C(=O)Nc1scnc1C` [Example 105], 0.043 µM; that for `COc1cc2nc(C3CCOCC3)cn2cc1C(=O)Nc1cc(F)ccc1OC(C)C` [Example 106], 0.08 µM.
As for `COc1cc2nc(C3CCOCC3)cn2cc1C(=O)NC1CCCC2C1C2(F)F` (stereo not shown) [Example 117], the concentration for half-maximal inhibition (IC50) was found to be 0.567 µM.
On the same count and under the same terms, in the case of `COc1cc2nc(C3CCOCC3)cn2cc1C(=O)Nc1cc(Cl)c(F)c(Cl)c1` [Example 119] it was 0.792 µM.
Still for that read-out and setting: in the case of `COc1cc2nc(C3CCOCC3)cn2cc1C(=O)Nc1cc(F)cc(F)c1F` [Example 120] it was 0.018 µM.
On the same count and under the same terms, in the case of `COc1cc2nc(C3CCOCC3)cn2cc1C(=O)NC1C2CCOC2C12CCC2` (stereo not shown) [Example 124] it was 0.122 µM; in that of `COc1cc2nc(C3CCOCC3)cn2cc1C(=O)NC1CCCC2(CC2)C1` (stereo not shown) [Example 126], 0.66 µM; in that of `COc1cc2nc(C3CCOCC3)cn2cc1C(=O)Nc1cc(C)cc(C)n1` [Example 127], 0.2 µM.
In turn, `CCc1ncc(F)cc1NC(=O)c1cn2cc(C3CCOCC3)nc2cc1OC` [Example 128] returned an IC50 of 0.067 µM.
Same read-out and setting: the result for `COc1cc2nc(C3CCOCC3)cn2cc1C(=O)Nc1cccc(F)c1C` [Example 129] reads 0.016 µM; that for `COc1cc2nc(C3CCOCC3)cn2cc1C(=O)Nc1cccc2c1C1CCC2O1` (stereo not shown) [Example 130], 0.14 µM; that for `COc1cc2nc(C3CCOCC3)cn2cc1C(=O)Nc1cccnc1C` [Example 131], 0.025 µM.
On the same count and under the same terms, in the case of `COc1cc2nc(C3CCOCC3)cn2cc1C(=O)Nc1cc(F)ccn1` [Example 132] it was 0.034 µM; in that of `COc1cc2nc(C3CCOCC3)cn2cc1C(=O)Nc1cc(Cl)cc(Cl)c1` [Example 133], 0.255 µM.
Still for that read-out and setting: in the case of `COc1cc2nc(C3CCOCC3)cn2cc1C(=O)NC1CC(C)C1` (stereo not shown) [Example 134] it was 0.632 µM.
For `COc1cc2nc(C3CCOCC3)cn2cc1C(=O)NC1CC(OC)c2ccccc21` (stereo not shown) [Example 136], the IC50 was found to be 0.944 µM.
The same measure, in the same setting: the result for `COc1cc2nc(C3CCOCC3)cn2cc1C(=O)Nc1cc(F)c(F)c(F)c1` [Example 137] reads 0.132 µM; that for `COc1cc2nc(C3CCOCC3)cn2cc1C(=O)Nc1cnsc1` [Example 138], 0.065 µM.
On the same count and under the same terms, in the case of `COc1cc2nc(C3CCOCC3)cn2cc1C(=O)NC1CCCC(F)C1` (stereo not shown) [Example 139] it was 0.725 µM; in that of `COc1cc2nc(C3CCOCC3)cn2cc1C(=O)Nc1ccccc1CC(C)C` [Example 140], 0.822 µM.

Staying with this test, now noted: read-out: IRAK4 Biochemical Assay (10 μM ATP, 2 h) IC50, 0.1 nM IRAK4.
Consider `COc1cccc(NC(=O)c2cn3cc(C[C@H]4CCOC4)nc3cc2OC)n1` [Example 50, (S)-7-methoxy-N-(6-methoxypyridin-2-yl)-2-((tetrahydrofuran-3-yl)methyl)imidazo[1,2-a]pyridine-6-carboxamide], for which the IC50 is 0.003 µM.
Take `COc1cccc(NC(=O)c2cn3cc(C[C@@H]4CCOC4)nc3cc2OC)n1` [Example 51, (R)-7-methoxy-N-(6-methoxypyridin-2-yl)-2-((tetrahydrofuran-3-yl)methyl)imidazo[1,2-a]pyridine-6-carboxamide]: the IC50 amounted to 0.003 µM.
